According to patent US20230286956A1 (DUKSUNG WOMEN'S UNIVERSITY INDUSTRY-ACADEMIC COOPERATION …, priority 2020, published 2023):

tested on: wild-type red mold strain GZ3639; assay: Inhibition of spore germination / reactive oxygen species generation through NOX enzyme inhibition in red mold; assay type: cell-based; details: 24 h, read-out: IC50 (µM), compound concentration at which the spore germination inhibition rate was 50%
Protocol: When NADPH oxidase (NOX), which is involved in the generation of reactive oxygen species in red mold, is inhibited, normal mycelial growth is inhibited, abnormal form of monocyclic conidia is formed, and germination is inhibited. The abnormal phenotype caused by the reduction of reactive oxygen species in red mold can be easily observed under an optical microscope. Through this, the ability to inhibit generation of reactive oxygen species through NOX inhibition was evaluated.
Specifically, for the evaluation of compound activity, 0.1 mM of the compound was added to a minimum medium (MM20) spore suspension diluted to ⅕. Spores ([…]) of wild-type red mold strain GZ3639 were inoculated into the medium and cultured at 25° C. for 24 h, followed by microscopic observation. Compounds having a germination inhibition rate and microcycle conidiation to be 50% or more of those in normal germination were selected, and their activities were evaluated at concentrations of 50 µM, 25 µM, and 10 µM. At this time, the activity of substances having a germination inhibition rate of 95% at 10 µM was further evaluated at concentrations of 5 µM, 1 µM, 0.5 µM, and 0.1 µM. Based on the result of this evaluation, the compound concentration (inhibitory concentration 50%, IC50) at which the spore germination inhibition rate was 50% was determined.

CN1C(=[Se])N(c2ccccc2)C(=O)/C1=C\c1ccc(N(C)C)cc1 [Compound 3, 5-(4-(dimethylamino)benzylidene)-1-methyl-3-phenyl-2-selenoxoimidazolidine-4-on] and CN1C(=[Se])N(CCc2ccccc2)C(=O)/C1=C\c1ccc(N(C)C)cc1 [Compound 43, 5-(4-(dimethylamino)benzylidene)-1-methyl-3-phenethyl-2-selenoxoimidazolidine-4-on] are within 1.5-fold of each other in IC50: 26 µM for the first, 23 µM for the second.

CN1C(=[Se])N(c2ccccc2)C(=O)/C1=C\c1ccc(N2CCCC2)cc1 [Compound 7, 1-methyl-3-phenyl-5-(4-pyrrolidine-1-yl)benzylidene-2-selenoxoimidazolidine-4-on] and Cc1ccc(N2C(=O)/C(=C\c3ccc(N4CCCC4)cc3)N(C)C2=[Se])cc1 [Compound 17, 1-methyl-5-(4-pyrrolidine-1-yl)benzylidene-2-selenoxo-3-(4-tolyl)imidazolidine-4-on] are within 1.5-fold of each other in IC50: 16 µM for the first, 11 µM for the second.

CN1C(=[Se])N(c2ccccc2)C(=O)/C1=C\c1cccc(O)c1 [Compound 8, 5-(3-hydroxybenzylidene)-1-methyl-3-phenyl-2-selenoxoimidazolidine-4-on] and CN1C(=[Se])N(c2ccccc2)C(=O)/C1=C\c1cccnc1 [Compound 9, 1-methyl-3-phenyl-5-(pyridine-3-ylmethylene)-2-selenoxoimidazolidine-4-on] are within 1.5-fold of each other in IC50: 41 µM for the first, 37 µM for the second.

Cc1ccc(N2C(=O)/C(=C\c3cccc(O)c3O)N(C)C2=[Se])cc1 [Compound 11, 5-(2,3-dihydroxybenzylidene)-1-methyl-3-(4-tolyl)-2-selenoxoimidazolidine-4-on] and CN1C(=[Se])N(c2ccc(Cl)cc2)C(=O)/C1=C\c1cccc(O)c1O [Compound 36, 3-(4-chlorophenyl)-5-(2,3-dihydroxybenzylidene)-1-methyl-2-selenoxoimidazolidine-4-on] are the same in IC50: 46 µM for the first, 46 µM for the second.

First: Cc1ccc(N2C(=O)/C(=C\c3ccc(Br)cc3)N(C)C2=[Se])cc1 [Compound 16, 5-(4-bromobenzylidene)-1-methyl-2-selenoxo-3-(4-tolyl)imidazolidine-4-on]
Second: Cc1ccc(N2C(=O)/C(=C\c3ccc(O)cc3)N(C)C2=[Se])cc1 [Compound 18, 5-(4-hydroxybenzylidene)-1-methyl-2-selenoxo-3-(4-tolyl)imidazolidine-4-on]
The IC50 of the first is 3.5-fold higher: 46 µM for the first, 13 µM for the second.

Going from Cc1ccc(N2C(=O)/C(=C\c3cccnc3)N(C)C2=[Se])cc1 [Compound 19, 1-methyl-5-(pyridine-3-ylmethylene)-2-selenoxo-3-(4-tolyl)imidazolidine-4-on] to CN1C(=[Se])N(c2ccc(Cl)cc2)C(=O)/C1=C\c1cccnc1 [Compound 39, 3-(4-chlorophenyl)-1-methyl-5-(pyridine-3-ylmethylene)-2-selenoxoimidazolidine-4-on], the IC50 falls from 41 µM to 27 µM (1.5-fold).

First: Cc1ccc(N2C(=O)/C(=C\c3ccc(NCCN4CCOCC4)cc3)N(C)C2=[Se])cc1 [Compound 23, 1-methyl-5-(4-((2-morpholinoethyl)amino)benzylidene)-2-selenoxo-3-(4-tolyl)imidazolidine-4-on]
Second: CCc1ccc(N2C(=O)/C(=C\c3ccc(N4CCCCC4)cc3)N(C)C2=[Se])cc1 [Compound 28, 3-(4-ethylphenyl)-1-methyl-5-(4-(piperidine-1-yl)benzylidene)-2-selenoxoimidazolidine-4-on]
The IC50 of the first is 2.1-fold lower: 5.2 µM for the first, 11 µM for the second.

Going from CCc1ccc(N2C(=O)/C(=C\c3ccc(O)cc3O)N(C)C2=[Se])cc1 [Compound 24, 5-(2,4-dihydroxybenzylidene)-3-(4-ethylphenyl)-1-methyl-2-selenoxoimidazolidine-4-on] to CN1C(=[Se])N(c2ccc(Cl)cc2)C(=O)/C1=C\c1ccc(O)cc1O [Compound 35, 3-(4-chlorophenyl)-5-(2,4-dihydroxybenzylidene)-1-methyl-2-selenoxoimidazolidine-4-on], the IC50 rises from 14 µM to 31 µM (2.2-fold). The first is the more potent here.

First: CCc1ccc(N2C(=O)/C(=C\c3ccc(Br)cc3)N(C)C2=[Se])cc1 [Compound 29, 5-(4-bromobenzylidene)-3-(4-ethylphenyl)-1-methyl-2-selenoxoimidazolidine-4-on]
Second: CCc1ccc(N2C(=O)/C(=C\c3cccnc3)N(C)C2=[Se])cc1 [Compound 31, 3-(4-ethylphenyl)-1-methyl-5-(pyridine-3-ylmethylene)-2-selenoxoimidazolidine-4-on]
The IC50 of the first is 2.7-fold lower: 11 µM for the first, 30 µM for the second.

First: CN1C(=[Se])N(c2ccc(Cl)cc2)C(=O)/C1=C\c1ccc(O)c(O)c1 [Compound 37, 3-(4-chlorophenyl)-5-(3,4-dihydroxybenzylidene)-1-methyl-2-selenoxoimidazolidine-4-on]
Second: CN1C(=[Se])N(c2ccc(Cl)cc2)C(=O)/C1=C\c1cc(O)cc(O)c1 [Compound 38, 3-(4-chlorophenyl)-5-(3,5-dihydroxybenzylidene)-1-methyl-2-selenoxoimidazolidine-4-on]
The IC50 of the first is 2.8-fold lower: 20 µM for the first, 56 µM for the second. The first is the more potent here.

Going from CN1C(=[Se])N(c2cccc(Cl)c2)C(=O)/C1=C\c1cccc(O)c1O [Compound 40, 3-(3-chlorophenyl)-5-(2,3-dihydroxybenzylidene)-1-methyl-2-selenoxoimidazolidine-4-on] to CCCCCCN1C(=O)/C(=C\c2cccc(O)c2O)N(C)C1=[Se] [Compound 60, 5-(2,3-dihydroxybenzylidene)-3-hexyl-1-methyl-2-selenoxoimidazolidine-4-on], the IC50 falls from 42 µM to 6 µM (7-fold). The second is the more potent here.

First: CN1C(=[Se])N(CCc2ccccc2)C(=O)/C1=C\c1ccc(O)cc1O [Compound 41, 5-(2,4-dihydroxybenzylidene)-1-methyl-3-phenethyl-2-selenoxoimidazolidine-4-on]
Second: CN1C(=[Se])N(CCc2ccccc2)C(=O)/C1=C\c1ccc(N2CCOCC2)cc1 [Compound 52, 1-methyl-5-(4-morpholinobenzylidene)-3-phenethyl-2-selenoxoimidazolidine-4-on]
The IC50 of the first is 2.8-fold higher: 9.8 µM for the first, 3.5 µM for the second.

Going from CN1C(=[Se])N(C2CCCCC2)C(=O)/C1=C\c1ccc(O)cc1O [Compound 55, 3-cyclohexyl-5-(2,4-dihydroxybenzylidene)-1-methyl-2-selenoxoimidazolidine-4-on] to CN1C(=[Se])N(C2CCCCC2)C(=O)/C1=C\c1cccc(O)c1O [Compound 56, 3-cyclohexyl-5-(2,3-dihydroxybenzylidene)-1-methyl-2-selenoxoimidazolidine-4-on], the IC50 rises from 1 µM to 18 µM (18-fold). The first is the more potent here.

Going from CN1C(=[Se])N(C2CCCCC2)C(=O)/C1=C\c1ccc(N(C)C)cc1 [Compound 57] to CN1C(=[Se])N(C2CCCCC2)C(=O)/C1=C\c1cc(O)cc(O)c1 [Compound 58, 3-cyclohexyl-5-(3,5-dihydroxybenzylidene)-1-methyl-2-selenoxoimidazolidine-4-on], the IC50 falls from 46 µM to 18 µM (2.6-fold). The second is the more potent here.

First: CCCCCCN1C(=O)/C(=C\c2ccc(N(C)C)cc2)N(C)C1=[Se] [Compound 61, 5-(4-(dimethylamino)benzylidene)-3-hexyl-1-methyl-2-selenoxoimidazolidine-4-on]
Second: CCCCCCN1C(=O)/C(=C\c2ccc(N3CCOCC3)cc2)N(C)C1=[Se] [Compound 63, 3-hexyl-1-methyl-5-(4-morpholinobenzylidene)-2-selenoxoimidazolidine-4-on]
The IC50 of the first is 66-fold higher: 33 µM for the first, 0.5 µM for the second. The second is the more potent here.

CCCCCCN1C(=O)/C(=C\c2cc(O)cc(O)c2)N(C)C1=[Se] [Compound 62, 5-(3,5-dihydroxybenzylidene)-3-hexyl-1-methyl-2-selenoxoimidazolidine-4-on] was tested, and the IC50 was 5 µM.
